Entries after “also recorded” stand apart in the source; their conditions may differ.
Experiments:
GABARAP = test: ITC binding to GABARAP; design: species or system human; conditions: for selectivity towards GABARAP proteins (in words): GABARAP versus LC3, FIGS. 2E and 4C
LGG-1 = LGG-1 (Caenorhabditis elegans, UniProt Q09490); test: ITC binding to purified LGG-1; design: species or system C. elegans
Excerpt: (§1) C. elegans provides an ideal platform to study autophagy and especially to investigate roles of different members of Atg8 in autophagy, because worms contain both GABARAP and LC3 subfamily Atg8s and yet simple enough with one gene for each subfamily (worm lgg-1 and lgg-2 are […] of GABARAP and LC3, respectively). It has also been shown earlier on that lgg-1 and lgg-2 act non-redundantly in autophagy (Wu et al., 2015). Prior to performing autophagy assays in worms, we measured the bindings of various AnkB/G LIR peptides to purified LGG-1 and LGG-2 using the same method as we have described for FIGS. 1&3.

LGG-2 = biological target: T1, LGG-2 (Caenorhabditis elegans, UniProt Q23536); test: ITC binding to purified LGG-2; design: species or system C. elegans
T1 sequence (Q23536 1-130): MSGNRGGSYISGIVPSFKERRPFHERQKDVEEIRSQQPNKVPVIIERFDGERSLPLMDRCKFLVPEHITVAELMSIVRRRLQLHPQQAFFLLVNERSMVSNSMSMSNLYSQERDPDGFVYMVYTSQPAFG
Excerpt: as §1

[1] = test system: LC3-positive puncta in COS7 cells; test: LC3-positive puncta in starved COS7 cells; format: cell-based; conditions: COS7 cells over-expressing mCherry-tagged peptide, nutrients deprivation
Excerpt: (§2) We used the well-established cultured COS7 cells for assessing autophagy inhibitions by the AnkB/G LIR peptides over-expressed in the cells. We quantified the numbers of endogenous LC3- or GABARAP-positive puncta, which represent LC3 or GABARAP-containing autophagic structures, as readouts to quantify autophagy inhibitions (Klionsky et al., 2016; Mizushima et al., 2010). After nutrients deprivation, obvious accumulations of LC3- or GABARAP-positive puncta could be observed in cells over-expressing mCherry only, indicating induction of autophagy by starvation (FIG. 6C6&E6). […] In contrast, expression of the mCherry-AnkB WR peptide had no impact on the LC3- or GABARAP-puncta numbers (i.e. with the same puncta numbers as expressing the mCherry vector control; FIG. 6C-F).

[2] = test system: GABARAP-positive puncta in COS7 cells; test: GABARAP-positive puncta in starved COS7 cells; format: cell-based; conditions: COS7 cells over-expressing mCherry-tagged peptide, nutrients deprivation
Excerpt: as §2

[3] = test system: p62-positive puncta in COS7 cells; test: p62-positive puncta in starved COS7 cells; format: cell-based; conditions: COS7 cells expressing mCherry-tagged peptide, starvation
Excerpt: We further quantified the level of p62, one of the best studied selective autophagy substrates, to monitor the autophagic flux in COS7 cells expressing various AnkB/G LIR peptides under the starvation condition (Klionsky et al., 2016; Mizushima et al., 2010). Upon autophagy induction, p62 forms aggregates via its LIR motif-mediated interactions to Atg8s and subsequent incorporation into autophagosomes (Bjorkoy et al., 2005; Pankiv et al., 2007). Only a relatively low and steady level of p62 aggregates is formed if autophagy flux is normal (i.e. p62-positive autophagosomes are steadily cleared by fusing with lysosomes; (Bjorkoy et al., 2005)), and this is indeed the case when cells were expressed with the mCherry vector control (FIG. 7F). […] This is consistent with a previous siRNA-based study showing that knockdown of LC3 but not GABARAP causes p62 accumulation in COS7 cells (Maruyama et al., 2014). Taken together, the above cell-based assays reinforce our earlier conclusion derived from biochemical and structural studies, that the AnkB WT peptide can function as potent autophagy inhibitor by targeting all members of the Atg8 family and the AnkG WT or ER peptides can selectively target the GABARAPs and spare the LC3s.

SQST-1::GFP = SQST-1::GFP aggregate accumulation in C. elegans expressing the peptides; format: in vivo
Excerpt: We next determined whether the AnkB WT peptide blocks autophagy in C. elegans. Autophagy is required for degradation of a variety of protein substrates, including the C. elegans p62 homolog SQST-1 during development (Tian et al., 2010). In the wild type animals, SQST-1::GFP is weakly expressed and diffusely localized in the cytoplasm, while numerous SQST-1 aggregates accumulate in autophagy mutants (Tian et al., 2010). The AnkB WT peptide fused with the Cherry reporter (Cherry::AnkB WT) or Cherry::AnkB WR was expressed under the control of the nfya-1 promoter, which is expressed ubiquitously from the embryonic to adult stages. The expression plasmids were injected into animals carrying integrated SQST-1::GFP reporter (bpIs151) and transgenic lines were obtained and analyzed.
Similarly, we also tested the blocking effect of AnkG peptides in C. elegans. […] This observation is somewhat different from that in mammalian heterologous cells. This may be explained by the different roles of the two families in different organisms. In mammal, p62 degradation is dependent on LC3 but not GABARAP (Maruyama et al., 2014), so blocking GABARAP binding has minimal effect on p62 degradation. However, in C. elegans, LGG-1 acts upstream to LGG-2 (Manil-Segalen et al., 2014; Wu et al., 2015), so blocking either of them will lead to defect in SQST-1 degradation.
Although a large collection of autophagy mutants were isolated from genetic screens (Tian et al., 2010), assays to inhibit autophagy activity in a spatiotemporal manner are not available. We investigated whether the AnkB peptide can block autophagy in a tissue- and temporal-specific manner. The AnkB peptide was expressed under the control of tissue-specific promoters, including the promoter of myo-3 for body wall muscle cells, y37A1B.5 for hypodermal cells and vha-6 for intestinal cells. The expression constructs were injected into animals carrying the corresponding tissue-specific SQST-1::GFP expression integrated lines.
We also examined whether the AnkB peptide can impair autophagy in a temporal control manner. The expression of AnkB WT was driven by the promoter of col-19, which is expressed in hypodermal cells from the young adult stage onwards.

C. elegans [4] = test: C. elegans hatching and development; format: in vivo; conditions: Pnfya-1::Cherry fusion
Excerpt: Autophagy plays critical roles in various physiological processes occurring during development or in adult C. elegans (Zhang et al., 2015). Fewer autophagy mutants develop into larvae. […] 60.8% embryos expressing the AnkB WT peptide hatched, compared to 96.9% of embryos expressing AnkB WR (FIG. 8G). Autophagy mutants also grow slowly. […] Thus, the AnkB WT peptide blocks autophagy during C. elegans development.

C. elegans [5] = test: C. elegans life span; format: in vivo
Excerpt: Autophagy is known to regulate the adult worm aging process. […] The autophagy defect caused by AnkB was weaker than that in autophagy mutants.

[6] = biological target: LC3s (LC3A, LC3B, LC3C) (Homo sapiens); test: ITC binding to LC3s
[7] = mCherry::AnkG peptides, embryonic stage (FIG. 10B-D)

Sequence of LGG-1 (Q09490 1-116 limits assumed): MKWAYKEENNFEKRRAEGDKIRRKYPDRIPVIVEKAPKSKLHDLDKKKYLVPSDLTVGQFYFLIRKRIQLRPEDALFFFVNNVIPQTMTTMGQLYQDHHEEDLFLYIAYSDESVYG

## E1599R modification of AnkB: AnkB LIR peptide with E1599R modification (VEEEWVIVSDERIEEARQKAPLEITEY; AnkB E1599R human recombinant peptide, prepared in the lab)
GABARAP
  selectivity towards GABARAP proteins (in words): increase in selectivity towards GABARAP proteins

## VEEEWVIVSDEEIEEARQKAPLEITEY [AnkB LIR, recombinant peptide from natural human 440 kD AnkB residues 1588-1614]
GABARAP; ITC
  affinity to GABARAP higher than AnkG LIR: about 10 fold
LGG-1
  binding to LGG-1 (in words): binds very strongly
LGG-2; purified LGG-2
  binding to LGG-2 (in words): binds very strongly
[1]
  LC3-positive puncta number: reduced the LC3- and GABARAP-puncta to the background level
[2]
  GABARAP-positive puncta number: reduced the LC3- and GABARAP-puncta to the background level
[3]
  p62-positive puncta versus mCherry vector control: dramatically increased
SQST-1::GFP; Cherry fusion, FIG. 8, embryo
  SQST-1::GFP aggregates: a large number of SQST-1::GFP aggregates accumulated
SQST-1::GFP; Cherry fusion, FIG. 8, larvae
  SQST-1::GFP aggregates: a large number of SQST-1::GFP aggregates
SQST-1::GFP; Cherry fusion, nfya-1 promoter (ubiquitous), multiple tissues, embryonic to adult stages
  SQST-1::GFP aggregates: accumulated a large number of SQST-1::GFP aggregates
SQST-1::GFP; col-19 promoter (hypodermal cells from young adult stage onwards), adult
  SQST-1::GFP aggregates: adult-specific accumulation of SQST-1::GFP aggregates
SQST-1::GFP; col-19 promoter, embryonic to L4 larval stages (no peptide expression yet), listed as AnkB WT
  SQST-1::GFP aggregates: no aggregates were found; also recorded: no SQST-1::GFP aggregates
SQST-1::GFP; mCherry fusion, hypodermal cells, embryo (FIG. 9)
  SQST-1::GFP aggregates: a large number of SQST-1::GFP aggregates accumulate
SQST-1::GFP; mCherry fusion, hypodermis, L4 larvae (FIG. 9)
  SQST-1::GFP aggregates: a large number of SQST-1::GFP aggregates accumulate
SQST-1::GFP; myo-3 promoter, muscle cells, L4 larvae
  SQST-1::GFP aggregates: SQST-1::GFP aggregates accumulate
SQST-1::GFP; myo-3 promoter, muscle cells, L4 larvae (FIG. 10W-Y), listed as AnkB WT
  dependence of SQST-1::GFP aggregates on peptide expression level: correlate with the degree of autophagy inhibition; also recorded: increases with increasing expression
SQST-1::GFP; myo-3 promoter, muscle, embryo
  SQST-1::GFP aggregates: a large number of SQST-1::GFP aggregates accumulate
SQST-1::GFP; tissue-specific promoters myo-3, y37A1B.5, vha-6, embryonic to adult stages
  SQST-1::GFP aggregates: a large number of SQST-1::GFP aggregates accumulated
SQST-1::GFP; vha-6 promoter, intestine cells, embryo
  SQST-1::GFP aggregates: SQST-1::GFP aggregates accumulate
SQST-1::GFP; vha-6 promoter, intestine cells, larvae (FIG. 10S, 10T)
  SQST-1::GFP aggregates: SQST-1::GFP aggregates accumulate
C. elegans [4]
  additional time for embryos to develop into L1 larvae compared to AnkB WR: approximately two more hours
  additional time to develop into young adults compared to AnkB WR: ~6 h
  embryos hatched (hatch rate): 60.8%
C. elegans [5]; Pmyo-3::ch:: fusion (muscle)
  Median lifespan: 18.12 days
C. elegans [5]; Pnfya-1::Cherry fusion
  life span compared to animals expressing Cherry::AnkB WR: dramatically shortened the life span
C. elegans [5]; Pnfya-1::ch:: fusion (ubiquitous)
  Median lifespan: 16.32 days
C. elegans [5]; Pvha-6::ch:: fusion (intestine)
  Median lifespan: 18.87 days
C. elegans [5]; Py37a1b.5::ch:: fusion (hypodermal cells)
  Median lifespan: 16.64 days
C. elegans [5]; expressed in hypodermal cells
  mean life span: slightly reduced the mean life span
C. elegans [5]; expressed in muscle cells and intestinal cells
  life span compared to animals expressing Cherry::AnkB WR: did not significantly reduce the life span

## PEDDWTRFSSEEIREARQAAASHAPS (AnkG E1991R rat recombinant peptide, prepared in the lab) [modified from rat 480 kD AnkG residues 1985-2010]
GABARAP
  selectivity towards GABARAP proteins (in words): increase in selectivity towards GABARAP proteins
GABARAP; ITC
  binding to GABARAP (in words): slightly weaker affinity
LGG-1
  binding to LGG-1 (in words): retained strong binding
LGG-2
  weaker affinity towards LGG-2 than LGG-1: ~1,000 fold
[1]
  LC3-positive puncta number: essentially no impact
[2]
  GABARAP-positive puncta number: potently inhibited
[3]
  p62-positive puncta versus mCherry vector control: no statistically significant increase
SQST-1::GFP; Cherry fusion, hyp7 promoter, epidermis, embryonic to adult stages
  SQST-1::GFP aggregates: caused accumulation of SQST-1::GFP aggregates
SQST-1::GFP; Phyp7::mCherry::AnkG peptides, hypodermis, L4 larvae
  SQST-1::GFP aggregates: a large number of SQST-1::GFP aggregates accumulate
SQST-1::GFP; [7]
  SQST-1::GFP aggregates: accumulation of SQST-1::GFP aggregates

## AnkG W1989R: AnkG LIR with Trp1989 substituted by Arg; negative and specificity control (PEDDRTEFSSEEIREARQAAASHAPS; AnkG W1989R rat recombinant peptide, prepared in the lab)
GABARAP; ITC
  binding to GABARAP (in words): dramatic weakening
[6]
  binding to LC3 (in words): dramatic weakening
[1]
  LC3-positive puncta number: did not see any noticeable changes
[2]
  GABARAP-positive puncta number: did not see any noticeable changes
[3]
  p62-positive puncta versus mCherry vector control: neither of the AnkB/G WR peptides could induce p62-positive puncta increase
SQST-1::GFP; [7]
  SQST-1::GFP aggregates: no SQST-1::GFP aggregates

## E1996R modification of AnkG: AnkG LIR peptide with E1996R modification (PEDDWTEFSSERIREARQAAASHAPS; AnkG E1996R rat recombinant peptide, prepared in the lab)
GABARAP
  selectivity towards GABARAP proteins (in words): increase in selectivity towards GABARAP proteins

## AnkG LIR C-helix alone: AnkG LIR C-helix alone (aa 1993-2010) (SSEEIREARQQAAASQSP; UniProt Q12955 1993-2010, looked up, fragment)
GABARAP; ITC
  binding to GABARAP (in words): no detectable binding

Reference: patent publication US11229680B2, “Autophagy inhibitors” (The Hong Kong University of Science and Technology, priority 2017, dated 2022)
